These results are taken from patent US20210047291A1, “PESTICIDALLY ACTIVE HETEROCYCLIC DERIVATIVES WITH SULFUR CONTAINING SUBSTITUENTS” (SYNGENTA PARTICIPATIONS AG, priority 2018, published 2021).

Read-outs that look alike come from different tables or passages of the source.

Common to all, as to type: in vivo
Assay [1] deals with Diabrotica Balteata (Corn Root Worm). Nature of the assay: Example B2: Diabrotica balteata, maize sprouts, L2 larvae. As to conditions: Diabrotica balteata, 96 h, application rate of 200 ppm; L2 larvae; 4 days after infestation; read-out: effect in at least one of the two categories (mortality or growth inhibition). The procedure:
Maize sprouts placed onto an agar layer in 24-well microtiter plates were treated with aqueous test solutions prepared from 10,000 ppm DMSO stock solutions by spraying. After drying, the plates were infested with L2 larvae (6 to 10 per well). The samples were assessed for mortality and growth inhibition in comparison to untreated samples 4 days after infestation.

In assay [2] the test system is Euschistus heros (Neotropical Brown Stink Bug). Nature of the assay: Example B3: Euschistus heros, soybean leaves, N2 nymphs. As to conditions: for percent effect (mortality or growth inhibition) at 200 ppm: 120 h, read-out: effect in at least one of the two categories (mortality or growth inhibition). The procedure:
Soybean leaves on agar in 24-well microtiter plates were sprayed with aqueous test solutions prepared from 10,000 ppm DMSO stock solutions. After drying the leaves were infested with N2 nymphs. The samples were assessed for mortality and growth inhibition in comparison to untreated samples 5 days after infestation.

For assay [3], the system named is Myzus persicae (Green peach aphid). Nature of the assay: Example B5: Myzus persicae feeding/contact activity, sunflower leaf discs. As to conditions: foliar; for mortality at 200 ppm: 144 h. As to the method: Sunflower leaf discs were placed onto agar in a 24-well microtiter plate and sprayed with aqueous test solutions prepared from 10,000 ppm DMSO stock solutions. After drying, the leaf discs were infested with an aphid population of mixed ages. The samples were assessed for mortality 6 days after infestation.

For assay [4] the test system is unchanged. As to the kind of experiment: Example B6: Myzus persicae systemic activity, pea seedlings. As to conditions: for mortality at 24 ppm: 144 h. As to the method: Roots of pea seedlings infested with an aphid population of mixed ages were placed directly into aqueous test solutions prepared from 10,000 DMSO stock solutions. The samples were assessed for mortality 6 days after placing seedlings into test solutions.

The subject of assay [5] is Plutella xylostella (Diamond Back Moth). As to the kind of experiment: Example B7: Plutella xylostella, artificial diet, L2 larvae. Particulars: 120 h, read-out: effect in at least one of the two categories (mortality or growth inhibition); for percent effect (mortality or growth inhibition) at 200 ppm: application rate of 200 ppm, L2 larvae, 5 days after infestation. The procedure:
24-well microtiter plates with artificial diet were treated with aqueous test solutions prepared from 10,000 ppm DMSO stock solutions by pipetting. After drying, the plates were infested with L2 larvae (10 to 15 per well). The samples were assessed for mortality and growth inhibition in comparison to untreated samples 5 days after infestation.

The subject of assay [6] is Spodoptera littoralis (Egyptian Cotton Leaf Worm). As to the kind of experiment: Example B9: Spodoptera littoralis, cotton leaf discs (mortality, anti-feeding, growth inhibition). As to conditions: foliar, 72 h, read-out: control (mortality, anti-feeding effect or growth inhibition). As to the method: Cotton leaf discs were placed onto agar in 24-well microtiter plates and sprayed with aqueous test solutions prepared from 10,000 ppm DMSO stock solutions. After drying the leaf discs were infested with five L1 larvae. The samples were assessed for mortality, anti-feeding effect, and growth inhibition in comparison to untreated samples 3 days after infestation. Control of Spodoptera littoralis by a test sample is given when at least one of the categories mortality, anti-feedant effect, and growth inhibition is higher than the untreated sample.

The next assay concerns Melodoigyne incognita. Nature of the assay: Example B14: Melodoigyne incognita juvenile mobility, in vitro profiling in 96 well plate. Particulars: read-out: control (juvenile mobility). The procedure:
Test solutions are prepared from 10,000 ppm DMSO stock solutions with a TECAN robot to achieve 20 μL of 1000, 200, 100, 50, 25 and 12.5 ppm. For each concentration three replicates are produced. Per well, 80 μL nematode solution is added containing 100 to 150 freshly harvested second stage juveniles of Melodoigyne incognita. The plates are covered and stored at room temperature in the dark and incubated for 24 h. Mobility of the exposed juveniles in a treated well is measured using an imaging tool and compared to an average of 12 untreated replicates.

The mark [7] stands for this setting: Euschistus heros, application rate of 200 ppm, N2 nymphs, 5 days after infestation.
Setting [8] is: Myzus persicae, application rate of 200 ppm, mixed ages, 6 days after infestation, read-out: mortality.
[9] abbreviates: Myzus persicae, test rate of 24 ppm, mixed ages, 6 days after placing seedlings into test solutions, read-out: mortality.
Where [10] appears, read: application rate of 200 ppm, L1 larvae, 3 days after infestation.
Where [11] appears, read: 200 ppm, after 24 h, second stage juveniles.

In the case of `CCS(=O)(=O)c1cc(N(C(C)=O)C2CC2)cnc1-c1nc2cc(C(F)(F)F)ncc2n1C` [P10, N-cyclopropyl-N-[5-ethylsulfonyl-6-[3-methyl-6-(trifluoromethyl)imidazo[4,5-c]pyridin-2-yl]-3-pyridyl]acetamide], the percent effect (mortality or growth inhibition) at 200 ppm in assay [1], in assay [2] (setting [7]) and in assay [5] was at least 80% throughout. The mortality at 200 ppm in assay [3] (setting [8]) is at least 80%. Further, in assay [4] (setting [9]), the mortality at 24 ppm is at least 80%. The percent control (mortality, anti-feedant effect or growth inhibition) at 200 ppm in assay [6] (setting [10]) is at least 80%. In addition, the pest or weed control at 200 ppm in the assay on Melodoigyne incognita (setting [11]) is at least 80%.

As to `CCS(=O)(=O)c1cc(N(C)C(=O)C(C)(C)C)cnc1-c1nc2cc(C(F)(F)F)ncc2n1C` [P26, N-[5-ethylsulfonyl-6-[3-methyl-6-(trifluoromethyl)imidazo[4,5-c]pyridin-2-yl]-3-pyridyl]-N,2,2-trimethyl-propanamide], the percent effect (mortality or growth inhibition) at 200 ppm in assay [2] (setting [7]) and in assay [5] was at least 80% throughout. The mortality at 200 ppm in assay [3] (setting [8]) was at least 80%. In addition, the mortality at 24 ppm in assay [4] (setting [9]) was at least 80%. Further, in the assay with Melodoigyne incognita (setting [11]), the pest or weed control at 200 ppm is at least 80%.

Regarding `CCS(=O)(=O)c1cc(N(C)C(=O)COC)cnc1-c1nc2cc(C(F)(F)F)ncc2n1C` [P12, N-[5-ethylsulfonyl-6-[3-methyl-6-(trifluoromethyl)imidazo[4,5-c]pyridin-2-yl]-3-pyridyl]-2-methoxy-N-methyl-acetamide], the percent effect (mortality or growth inhibition) at 200 ppm in assay [1], in assay [2] (setting [7]) and in assay [5] was at least 80% in each case. Further, the mortality at 200 ppm in assay [3] (setting [8]) is at least 80%. Besides, in assay [4] (setting [9]), the mortality at 24 ppm was at least 80%. Further, the percent control (mortality, anti-feedant effect or growth inhibition) at 200 ppm in assay [6] (setting [10]) is at least 80%. Further, in the assay with Melodoigyne incognita (setting [11]), the pest or weed control at 200 ppm was at least 80%.

For the compound `CCS(=O)(=O)c1cc(N2CCN(OC)C2=O)cnc1-c1nc2cc(C(F)(F)F)ncc2n1C` [P35, 1-[5-ethylsulfonyl-6-[3-methyl-6-(trifluoromethyl)imidazo[4,5-c]pyridin-2-yl]-3-pyridyl]-3-methoxy-imidazolidin-2-one], the percent effect (mortality or growth inhibition) at 200 ppm in assay [2] (setting [7]) is at least 80%. Also, the mortality at 200 ppm in assay [3] (setting [8]) was at least 80%. Besides, the mortality at 24 ppm in assay [4] (setting [9]) was at least 80%. Also, in assay [6] (setting [10]), the percent control (mortality, anti-feedant effect or growth inhibition) at 200 ppm was at least 80%.

`CCC(=O)N(c1cnc(-c2nc3cc(C(F)(F)F)ncc3n2C)c(S(=O)(=O)CC)c1)C1CC1` [P40, N-cyclopropyl-N-[5-ethylsulfonyl-6-[3-methyl-6-(trifluoromethyl)imidazo[4,5-c]pyridin-2-yl]-3-pyridyl]propanamide]: the percent effect (mortality or growth inhibition) at 200 ppm in assay [1], in assay [2] (setting [7]) and in assay [5] was at least 80% each time. Moreover, in assay [3] (setting [8]), the mortality at 200 ppm is at least 80%. Also, the mortality at 24 ppm in assay [4] (setting [9]) is at least 80%. Also, the percent control (mortality, anti-feedant effect or growth inhibition) at 200 ppm in assay [6] (setting [10]) was at least 80%. For the same compound, the pest or weed control at 200 ppm in the assay on Melodoigyne incognita (setting [11]) is at least 80%.

For the compound `CCS(=O)(=O)c1cc(N2CCOC2=O)cnc1-c1nc2cc(C(F)(F)F)ncc2n1C` [P34, 3-[5-ethylsulfonyl-6-[3-methyl-6-(trifluoromethyl)imidazo[4,5-c]pyridin-2-yl]-3-pyridyl]oxazolidin-2-one], the mortality at 50 ppm in assay [2] (Concentration 50 ppm, Euschistus heros (Example B3), read-out: Mortality (%)) came out at 80%. The percent effect (mortality or growth inhibition) at 200 ppm in assay [2] (setting [7]) and in assay [5] was at least 80% in each case. Moreover, in assay [3] (setting [8]), the mortality at 200 ppm was at least 80%. Further, the mortality at 12.5 ppm in assay [3] (Concentration 12.5 ppm, Myzus persicae (feeding/contact, Example B5), read-out: Mortality (%)) was 100%. Also, the mortality at 1.5 ppm in assay [4] (Concentration 1.5 ppm, Myzus persicae (systemic, Example B6), read-out: Mortality (%)) was determined as 100%. Besides, the mortality at 24 ppm in assay [4] (setting [9]) was at least 80%. The percent control (mortality, anti-feedant effect or growth inhibition) at 200 ppm in assay [6] (setting [10]) is at least 80%. Also, in the assay on Melodoigyne incognita (setting [11]), the pest or weed control at 200 ppm is at least 80%.

As for `CCS(=O)(=O)c1cc(N2CCCC2=O)cnc1-c1nc2cc(C(F)(F)F)ncc2n1C` [P5, 1-[5-ethylsulfonyl-6-[3-methyl-6-(trifluoromethyl)imidazo[4,5-c]pyridin-2-yl]-3-pyridyl]pyrrolidin-2-one], in assay [2] (Euschistus heros), the mortality at 50 ppm stood at 100% and the percent effect (mortality or growth inhibition) at 200 ppm was at least 80%. Moreover, in assay [3] (Myzus persicae), the mortality at 12.5 ppm worked out at 0% and the mortality at 200 ppm is at least 80%. In addition, in assay [4] (Myzus persicae), the mortality at 1.5 ppm stood at 80% and the mortality at 24 ppm was at least 80%. Moreover, the percent control (mortality or growth inhibition) at 200 ppm in assay [5] was at least 80%. Also, in assay [6], the percent control (mortality, anti-feedant effect or growth inhibition) at 200 ppm is at least 80%. Besides, the pest or weed control at 200 ppm with Melodoigyne incognita (24 h) is at least 80%.

For the compound `CCS(=O)(=O)c1cc(N(C)C(=O)CS(C)(=O)=O)cnc1-c1nc2cc(C(F)(F)F)ncc2n1C` [P17, N-[5-ethylsulfonyl-6-[3-methyl-6-(trifluoromethyl)imidazo[4,5-c]pyridin-2-yl]-3-pyridyl]-N-methyl-2-methylsulfonyl-acetamide], the percent effect (mortality or growth inhibition) at 200 ppm in assay [1] and in assay [2] (setting [7]) was at least 80% throughout. In addition, in assay [3] (setting [8]), the mortality at 200 ppm is at least 80%. Moreover, the mortality at 24 ppm in assay [4] (setting [9]) is at least 80%. Further, the percent control (mortality, anti-feedant effect or growth inhibition) at 200 ppm in assay [6] (setting [10]) is at least 80%. Further, in the assay with Melodoigyne incognita (setting [11]), the pest or weed control at 200 ppm is at least 80%.

Take `CCS(=O)(=O)c1cc(N(C)C(=O)CCl)cnc1-c1nc2cc(C(F)(F)F)ncc2n1C` [P22, 2-chloro-N-[5-ethylsulfonyl-6-[3-methyl-6-(trifluoromethyl)imidazo[4,5-c]pyridin-2-yl]-3-pyridyl]-N-methyl-acetamide]: the percent effect (mortality or growth inhibition) at 200 ppm in assay [2] (setting [7]) is at least 80%. In addition, the mortality at 200 ppm in assay [3] (setting [8]) was at least 80%. Also, the mortality at 24 ppm in assay [4] (setting [9]) was at least 80%. The percent control (mortality, anti-feedant effect or growth inhibition) at 200 ppm in assay [6] (setting [10]) is at least 80%. The pest or weed control at 200 ppm in the assay on Melodoigyne incognita (setting [11]) was at least 80%.

For the compound `CCC(=O)Nc1cnc(-c2nc3cc(C(F)(F)F)ncc3n2C)c(S(=O)(=O)CC)c1` [P25, N-[5-ethylsulfonyl-6-[3-methyl-6-(trifluoromethyl)imidazo[4,5-c]pyridin-2-yl]-3-pyridyl]propanamide], the percent effect (mortality or growth inhibition) at 200 ppm in assay [1], in assay [2] (setting [7]) and in assay [5] was at least 80% throughout. For the same compound, the mortality at 200 ppm in assay [3] (setting [8]) is at least 80%. The mortality at 24 ppm in assay [4] (setting [9]) was at least 80%. The pest or weed control at 200 ppm in the assay with Melodoigyne incognita (setting [11]) was at least 80%.

For `CCS(=O)(=O)c1cc(N(OC)C(=O)C2CC2)cnc1-c1nc2cc(C(F)(F)F)ncc2n1C` [P24, N-[5-ethylsulfonyl-6-[3-methyl-6-(trifluoromethyl)imidazo[4,5-c]pyridin-2-yl]-3-pyridyl]-N-methoxy-cyclopropanecarboxamide], the percent effect (mortality or growth inhibition) at 200 ppm in assay [1], in assay [2] (setting [7]) and in assay [5] was at least 80% throughout. In assay [6] (setting [10]), the percent control (mortality, anti-feedant effect or growth inhibition) at 200 ppm was at least 80%. In the assay with Melodoigyne incognita (setting [11]), the pest or weed control at 200 ppm was at least 80%.

In general, mortality refers to the share of the test organisms that died.
